Values quoted from earlier work in US8324425B2, “Method for producing bicyclic γ-amino acid derivative” (Daiichi Sankyo Company, Limited, priority 2009, dated 2012).

How the values were obtained:
[1] = according to patients' own evaluation; Non Patent Literature 3
[2] = according to patients' own evaluation; Non Patent Literature 4

Compound | efficacy in the treatment of postherpetic neuralgia [1] | efficacy in the treatment of painful diabetic neuropathy [2]
NCC1(CC(=O)O)CCCCC1 [gabapentine] | approximately 60% | –
CC(C)C[C@H](CN)CC(=O)O [pregabalin] | – | approximately 50%
